In patent publication US8026278B2, “Inhibitors of pyruvate kinase as therapeutic agents for cancer” (priority 2005, dated 2011):

Assays:
[1] = molecular target: T1, Pyruvate kinase isolated from rabbit muscle (Oryctolagus cuniculus, UniProt P11974); experiment: Inhibition of pyruvate kinase (indirect assay quantifying ADP production); assay type: biochemical
T1 construct: Pyruvate kinase isolated from rabbit muscle; purchased Sigma-Aldrich; host or cells: rabbit muscle (tissue-derived enzyme)
Description: The compounds E-3-chlorophosphoenolpyruvate ditriethyl-ammonium salt (ECPDAT), Z-3-chlorophosphoenolpyruvate tritriethyl-ammonium salt (CPTP), phosphoenol-3-bromo-pyruvic acid mono-cyclohexyl ammonium salt (PBPA), 2-bromooxoethylphosphonic acid mono-cyclohexyl-ammonium salt (BOEPA) and 3-bromopyruvic acid (BrPyA) were tested for their efficiency at inhibiting pyruvate kinase. Pyruvate kinase isolated from rabbit muscle was purchased from Sigma-Aldrich. Pyruvate kinase was assayed indirectly by quantifying ADP production formed in the reaction ATP+pyruvate to ADP+phosphoenolpyruvate. Inhibitors were added to the reaction mixture immediately before the reaction was started by the addition of ATP.

[2] = tested on: MCF7 (breast) cancer cell line; experiment: MTT assay, inhibition of cell proliferation, MCF7; assay type: cell-based; settings: MCF7, 72 hours
Description: (§1) The compounds of the invention were tested for their inhibition potential of cell proliferation. MCF7 (breast) and SF268 (glioma) cancer cell lines were incubated with different concentrations of the compounds and their viability was assessed using an MTT (3-(4,5-dimethylthiazol-2-yl)-2,5-diphenyltetrazolium bromide) assay. The MTT assay is well known in the art (see for example Slater et al., Biochim. Biophys. Acta 77 (1963) 383). The cells were incubated with a given inhibitor for 72 hours and assayed.

[3] = tested on: SF268 (glioma) cancer cell line; experiment: MTT assay, inhibition of cell proliferation, SF268; assay type: cell-based; settings: SF268, 72 hours
Description: as §1

T1 sequence (P11974 whole entry): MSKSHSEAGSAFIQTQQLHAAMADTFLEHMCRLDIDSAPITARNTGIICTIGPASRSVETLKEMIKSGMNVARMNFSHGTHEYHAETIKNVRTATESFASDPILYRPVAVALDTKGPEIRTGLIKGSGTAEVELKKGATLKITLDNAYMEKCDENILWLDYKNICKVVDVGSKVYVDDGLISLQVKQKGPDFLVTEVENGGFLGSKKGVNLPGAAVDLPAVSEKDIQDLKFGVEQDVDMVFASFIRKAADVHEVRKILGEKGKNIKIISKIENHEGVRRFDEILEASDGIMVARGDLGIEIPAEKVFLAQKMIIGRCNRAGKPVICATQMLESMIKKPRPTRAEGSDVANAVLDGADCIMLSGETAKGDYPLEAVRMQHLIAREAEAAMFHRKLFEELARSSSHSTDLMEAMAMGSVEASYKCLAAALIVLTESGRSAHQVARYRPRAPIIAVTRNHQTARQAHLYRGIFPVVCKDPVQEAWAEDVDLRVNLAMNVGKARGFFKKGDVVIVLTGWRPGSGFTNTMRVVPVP

Z-3-chlorophosphoenolpyruvate tritriethyl-ammonium salt [CPTP]
Inhibition of pyruvate kinase compared with BrPyA [1]: inhibited pyruvate kinase at lower concentrations than BrPyA | % Inhibition ([1]; Concentration 0.1 μM): 0% | % Inhibition ([1]; Concentration 1 μM): 43.7% | % Inhibition ([1]; Concentration 10 μM): 48.4% | Inhibition of cell proliferation [2]: inhibited cell proliferation | % (A-Blank relative to control) ([2]; 10 uM): 98.7% | A-Blank (Average-Blank) O.D. at 570 nm ([2]; 10 uM): 0.7995 O.D. | Average O.D. reading at 570 nm ([2]; 10 uM): 0.8822 O.D. | % (A-Blank relative to control) ([2]; 25 uM): 98.796% | A-Blank (Average-Blank) O.D. at 570 nm ([2]; 25 uM): 0.8003 O.D. | Average O.D. reading at 570 nm ([2]; 25 uM): 0.883 O.D. | % (A-Blank relative to control) ([2]; 50 uM): 101.05% | A-Blank (Average-Blank) O.D. at 570 nm ([2]; 50 uM): 0.8185 O.D. | Average O.D. reading at 570 nm ([2]; 50 uM): 0.9013 O.D. | % (A-Blank relative to control) ([2]; 75 uM): 96.173% | A-Blank (Average-Blank) O.D. at 570 nm ([2]; 75 uM): 0.779 O.D. | Average O.D. reading at 570 nm ([2]; 75 uM): 0.8618 O.D. | % (A-Blank relative to control) ([2]; 100 uM): 96.358% | A-Blank (Average-Blank) O.D. at 570 nm ([2]; 100 uM): 0.7805 O.D. | Average O.D. reading at 570 nm ([2]; 100 uM): 0.8633 O.D. | % (A-Blank relative to control) ([2]; 200 uM): 88.241% | A-Blank (Average-Blank) O.D. at 570 nm ([2]; 200 uM): 0.7148 O.D. | Average O.D. reading at 570 nm ([2]; 200 uM): 0.7975 O.D. | % (A-Blank relative to control) ([2]; 300 uM): 81.4198% | A-Blank (Average-Blank) O.D. at 570 nm ([2]; 300 uM): 0.6595 O.D. | Average O.D. reading at 570 nm ([2]; 300 uM): 0.7422 O.D. | % (A-Blank relative to control) ([2]; 500 uM): 71.39% | A-Blank (Average-Blank) O.D. at 570 nm ([2]; 500 uM): 0.5783 O.D. | Average O.D. reading at 570 nm ([2]; 500 uM): 0.661 O.D. | Inhibition of cell proliferation [3]: inhibited cell proliferation | % (A-Blank relative to control) ([3]; 10 uM): 99.42% | A-Blank (Average-Blank) O.D. at 570 nm ([3]; 10 uM): 0.6887 O.D. | Average O.D. reading at 570 nm ([3]; 10 uM): 0.775 O.D. | % (A-Blank relative to control) ([3]; 25 uM): 99.892% | A-Blank (Average-Blank) O.D. at 570 nm ([3]; 25 uM): 0.692 O.D. | Average O.D. reading at 570 nm ([3]; 25 uM): 0.7783 O.D. | % (A-Blank relative to control) ([3]; 50 uM): 98.232% | A-Blank (Average-Blank) O.D. at 570 nm ([3]; 50 uM): 0.6805 O.D. | Average O.D. reading at 570 nm ([3]; 50 uM): 0.7668 O.D. | % (A-Blank relative to control) ([3]; 75 uM): 93.829% | A-Blank (Average-Blank) O.D. at 570 nm ([3]; 75 uM): 0.65 O.D. | Average O.D. reading at 570 nm ([3]; 75 uM): 0.7363 O.D. | % (A-Blank relative to control) ([3]; 100 uM): 96.752% | A-Blank (Average-Blank) O.D. at 570 nm ([3]; 100 uM): 0.6703 O.D. | Average O.D. reading at 570 nm ([3]; 100 uM): 0.7565 O.D. | % (A-Blank relative to control) ([3]; 200 uM): 75.893% | A-Blank (Average-Blank) O.D. at 570 nm ([3]; 200 uM): 0.5258 O.D. | Average O.D. reading at 570 nm ([3]; 200 uM): 0.612 O.D. | % (A-Blank relative to control) ([3]; 300 uM): 57.4883% | A-Blank (Average-Blank) O.D. at 570 nm ([3]; 300 uM): 0.3982 O.D. | Average O.D. reading at 570 nm ([3]; 300 uM): 0.4845 O.D. | % (A-Blank relative to control) ([3]; 500 uM): 36.8459% | A-Blank (Average-Blank) O.D. at 570 nm ([3]; 500 uM): 0.2552 O.D. | Average O.D. reading at 570 nm ([3]; 500 uM): 0.3415 O.D.

E-3-chlorophosphoenolpyruvate ditriethyl-ammonium salt [E-CPDA]
Inhibition of pyruvate kinase compared with BrPyA [1]: inhibited pyruvate kinase at lower concentrations than BrPyA | % Inhibition ([1]; Concentration 0.1 μM): 0% | % Inhibition ([1]; Concentration 1 μM): 10.9% | % Inhibition ([1]; Concentration 10 μM): 100% | Inhibition of cell proliferation [2]: inhibited cell proliferation | % (A-Blank relative to control) ([2]; 10 uM): 101.1% | A-Blank (Average-Blank) O.D. at 570 nm ([2]; 10 uM): 0.8245 O.D. | Average O.D. reading at 570 nm ([2]; 10 uM): 0.91 O.D. | % (A-Blank relative to control) ([2]; 25 uM): 97.333% | A-Blank (Average-Blank) O.D. at 570 nm ([2]; 25 uM): 0.7938 O.D. | Average O.D. reading at 570 nm ([2]; 25 uM): 0.8793 O.D. | % (A-Blank relative to control) ([2]; 50 uM): 86.726% | A-Blank (Average-Blank) O.D. at 570 nm ([2]; 50 uM): 0.7073 O.D. | Average O.D. reading at 570 nm ([2]; 50 uM): 0.7928 O.D. | % (A-Blank relative to control) ([2]; 75 uM): 78.449% | A-Blank (Average-Blank) O.D. at 570 nm ([2]; 75 uM): 0.6398 O.D. | Average O.D. reading at 570 nm ([2]; 75 uM): 0.7253 O.D. | % (A-Blank relative to control) ([2]; 100 uM): 72.072% | A-Blank (Average-Blank) O.D. at 570 nm ([2]; 100 uM): 0.5878 O.D. | Average O.D. reading at 570 nm ([2]; 100 uM): 0.6733 O.D. | % (A-Blank relative to control) ([2]; 200 uM): 68.486% | A-Blank (Average-Blank) O.D. at 570 nm ([2]; 200 uM): 0.5585 O.D. | Average O.D. reading at 570 nm ([2]; 200 uM): 0.644 O.D. | % (A-Blank relative to control) ([2]; 300 uM): 7.8786% | A-Blank (Average-Blank) O.D. at 570 nm ([2]; 300 uM): 0.06425 O.D. | Average O.D. reading at 570 nm ([2]; 300 uM): 0.1497 O.D. | % (A-Blank relative to control) ([2]; 500 uM): 2.759% | A-Blank (Average-Blank) O.D. at 570 nm ([2]; 500 uM): 0.0225 O.D. | Average O.D. reading at 570 nm ([2]; 500 uM): 0.108 O.D. | Inhibition of cell proliferation [3]: inhibited cell proliferation | % (A-Blank relative to control) ([3]; 10 uM): 80.1% | A-Blank (Average-Blank) O.D. at 570 nm ([3]; 10 uM): 0.672 O.D. | Average O.D. reading at 570 nm ([3]; 10 uM): 0.777 O.D. | % (A-Blank relative to control) ([3]; 25 uM): 80.453% | A-Blank (Average-Blank) O.D. at 570 nm ([3]; 25 uM): 0.675 O.D. | Average O.D. reading at 570 nm ([3]; 25 uM): 0.78 O.D. | % (A-Blank relative to control) ([3]; 50 uM): 64.243% | A-Blank (Average-Blank) O.D. at 570 nm ([3]; 50 uM): 0.539 O.D. | Average O.D. reading at 570 nm ([3]; 50 uM): 0.644 O.D. | % (A-Blank relative to control) ([3]; 75 uM): 44.458% | A-Blank (Average-Blank) O.D. at 570 nm ([3]; 75 uM): 0.373 O.D. | Average O.D. reading at 570 nm ([3]; 75 uM): 0.478 O.D. | % (A-Blank relative to control) ([3]; 100 uM): 30.513% | A-Blank (Average-Blank) O.D. at 570 nm ([3]; 100 uM): 0.256 O.D. | Average O.D. reading at 570 nm ([3]; 100 uM): 0.361 O.D. | % (A-Blank relative to control) ([3]; 200 uM): 13.23% | A-Blank (Average-Blank) O.D. at 570 nm ([3]; 200 uM): 0.111 O.D. | Average O.D. reading at 570 nm ([3]; 200 uM): 0.216 O.D. | % (A-Blank relative to control) ([3]; 300 uM): 6.555% | A-Blank (Average-Blank) O.D. at 570 nm ([3]; 300 uM): 0.055 O.D. | Average O.D. reading at 570 nm ([3]; 300 uM): 0.16 O.D. | % (A-Blank relative to control) ([3]; 500 uM): 3.099% | A-Blank (Average-Blank) O.D. at 570 nm ([3]; 500 uM): 0.026 O.D. | Average O.D. reading at 570 nm ([3]; 500 uM): 0.131 O.D.
